Assays:
Experiment in all cases: KINOMEscan competition binding
Details in all cases: compound 0.5 µM
CAMKK2 (human) = CAMKK2 (human) (UniProt Q96RR4)
TRPM6 (human) = TRPM6 (human) (UniProt Q9BX84)
CSNK1G2 (human) = CSNK1G2 (human) (UniProt P78368)
STK4 (human) = STK4 (human) (UniProt Q13043)
RIOK1 (human) = RIOK1 (human) (UniProt Q9BRS2)
[1] = tested on: FLT3 (human), P36888 [R834Q]
CSNK1D (human) = CSNK1D (human) (UniProt P48730)
ULK3 (human) = ULK3 (human) (UniProt Q6PHR2)
PRKG2 (human) = PRKG2 (human) (UniProt Q13237)
CAMK2D (human) = CAMK2D (human) (UniProt Q13557)
GRK1 (human) = GRK1 (human) (UniProt Q15835)
TNK2 (human) = TNK2 (human) (UniProt Q07912)
[2] = molecular target: JAK1 JH2 pseudokinase (human) (UniProt P23458)
MYO3A (human) = MYO3A (human) (UniProt Q8NEV4)
ADCK4 (human) = ADCK4 (human) (UniProt Q96D53)
TEC (human) = TEC (human) (UniProt P42680)
STK38 (human) = STK38 (human) (UniProt Q15208)
FGFR1 (human) = FGFR1 (human) (UniProt P11362)
LTK (human) = LTK (human) (UniProt P29376)
CSNK1G3 (human) = CSNK1G3 (human) (UniProt Q9Y6M4)
MERTK (human) = MERTK (human) (UniProt Q12866)
PRKD3 (human) = PRKD3 (human) (UniProt O94806)
MAPK6 (human) = MAPK6 (human) (UniProt Q16659)
AAK1 (human) = AAK1 (human) (UniProt Q2M2I8)
MAPK1 (human) = MAPK1 (human) (UniProt P28482)
AURKC (human) = AURKC (human) (UniProt Q9UQB9)
DAPK2 (human) = DAPK2 (human) (UniProt Q9UIK4)
OXSR1 (human) = OXSR1 (human) (UniProt O95747)
PIK3CG (human) = PIK3CG (human) (UniProt P48736)
MARK3 (human) = MARK3 (human) (UniProt P27448)
MET (human) = MET (human) (UniProt P08581)
MKNK1 (human) = MKNK1 (human) (UniProt Q9BUB5)
DAPK1 (human) = DAPK1 (human) (UniProt P53355)
CDK5 (human) = CDK5 (human) (UniProt Q00535)
PRKAA2 (human) = PRKAA2 (human) (UniProt P54646)
PKN2 (human) = PKN2 (human) (UniProt Q16513)
PTK2B (human) = PTK2B (human) (UniProt Q14289)
TAOK1 (human) = TAOK1 (human) (UniProt Q7L7X3)
MUSK (human) = MUSK (human) (UniProt O15146)
MAPK8 (human) = MAPK8 (human) (UniProt P45983)
TXK (human) = TXK (human) (UniProt P42681)
CHUK (human) = CHUK (human) (UniProt O15111)

PRKG2 (human), sequence (Q13237 whole entry, looked up): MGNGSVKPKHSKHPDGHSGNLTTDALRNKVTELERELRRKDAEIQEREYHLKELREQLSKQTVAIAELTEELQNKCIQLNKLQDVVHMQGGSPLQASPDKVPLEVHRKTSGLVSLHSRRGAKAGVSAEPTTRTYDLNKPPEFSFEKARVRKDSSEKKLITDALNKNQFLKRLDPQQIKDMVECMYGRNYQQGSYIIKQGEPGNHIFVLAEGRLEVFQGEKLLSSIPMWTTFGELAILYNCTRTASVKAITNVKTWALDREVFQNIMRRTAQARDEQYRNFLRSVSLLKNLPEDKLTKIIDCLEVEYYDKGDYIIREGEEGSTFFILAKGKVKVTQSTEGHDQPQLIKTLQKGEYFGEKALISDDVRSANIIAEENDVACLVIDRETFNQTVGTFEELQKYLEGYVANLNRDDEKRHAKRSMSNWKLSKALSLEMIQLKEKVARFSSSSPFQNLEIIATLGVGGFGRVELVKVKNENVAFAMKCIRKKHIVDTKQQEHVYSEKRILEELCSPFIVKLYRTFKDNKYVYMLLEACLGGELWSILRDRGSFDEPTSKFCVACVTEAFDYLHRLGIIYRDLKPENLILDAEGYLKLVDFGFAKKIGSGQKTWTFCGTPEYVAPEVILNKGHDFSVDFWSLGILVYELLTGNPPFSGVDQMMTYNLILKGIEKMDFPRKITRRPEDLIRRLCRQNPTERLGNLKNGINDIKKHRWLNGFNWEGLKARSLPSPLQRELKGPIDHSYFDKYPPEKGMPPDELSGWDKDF
GRK1 (human), sequence (Q15835 whole entry, looked up): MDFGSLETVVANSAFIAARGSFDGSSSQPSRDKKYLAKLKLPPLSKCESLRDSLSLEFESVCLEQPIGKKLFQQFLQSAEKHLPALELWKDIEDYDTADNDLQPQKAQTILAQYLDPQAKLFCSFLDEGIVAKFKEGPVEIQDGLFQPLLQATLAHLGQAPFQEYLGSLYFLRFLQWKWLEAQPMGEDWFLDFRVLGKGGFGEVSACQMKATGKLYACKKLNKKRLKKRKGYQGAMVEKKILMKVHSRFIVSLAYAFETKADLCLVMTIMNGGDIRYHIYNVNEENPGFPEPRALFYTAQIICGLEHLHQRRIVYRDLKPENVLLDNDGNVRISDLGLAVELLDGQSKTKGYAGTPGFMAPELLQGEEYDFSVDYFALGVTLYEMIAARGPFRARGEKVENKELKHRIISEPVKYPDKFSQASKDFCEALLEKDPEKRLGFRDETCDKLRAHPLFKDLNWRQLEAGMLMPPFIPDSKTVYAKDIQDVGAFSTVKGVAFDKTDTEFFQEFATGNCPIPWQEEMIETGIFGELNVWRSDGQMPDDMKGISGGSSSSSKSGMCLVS
TEC (human), sequence (P42680 whole entry, looked up): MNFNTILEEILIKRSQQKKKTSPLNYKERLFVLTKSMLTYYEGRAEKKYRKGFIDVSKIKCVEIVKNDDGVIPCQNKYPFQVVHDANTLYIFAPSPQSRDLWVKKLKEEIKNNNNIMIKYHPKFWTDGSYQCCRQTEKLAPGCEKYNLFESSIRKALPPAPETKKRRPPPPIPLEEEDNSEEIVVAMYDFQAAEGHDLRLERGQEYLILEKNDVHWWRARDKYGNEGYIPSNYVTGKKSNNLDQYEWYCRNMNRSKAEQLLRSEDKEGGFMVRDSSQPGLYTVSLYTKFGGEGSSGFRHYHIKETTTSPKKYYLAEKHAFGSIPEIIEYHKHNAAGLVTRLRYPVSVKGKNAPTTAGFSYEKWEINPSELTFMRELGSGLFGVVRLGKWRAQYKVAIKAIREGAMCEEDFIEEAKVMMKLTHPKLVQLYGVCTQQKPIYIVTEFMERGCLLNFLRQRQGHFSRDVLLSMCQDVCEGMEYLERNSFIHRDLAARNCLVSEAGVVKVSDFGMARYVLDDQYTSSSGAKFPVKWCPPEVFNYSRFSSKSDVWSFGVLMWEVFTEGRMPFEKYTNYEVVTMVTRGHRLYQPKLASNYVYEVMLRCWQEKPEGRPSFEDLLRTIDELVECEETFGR
MET (human), sequence (P08581 whole entry, looked up): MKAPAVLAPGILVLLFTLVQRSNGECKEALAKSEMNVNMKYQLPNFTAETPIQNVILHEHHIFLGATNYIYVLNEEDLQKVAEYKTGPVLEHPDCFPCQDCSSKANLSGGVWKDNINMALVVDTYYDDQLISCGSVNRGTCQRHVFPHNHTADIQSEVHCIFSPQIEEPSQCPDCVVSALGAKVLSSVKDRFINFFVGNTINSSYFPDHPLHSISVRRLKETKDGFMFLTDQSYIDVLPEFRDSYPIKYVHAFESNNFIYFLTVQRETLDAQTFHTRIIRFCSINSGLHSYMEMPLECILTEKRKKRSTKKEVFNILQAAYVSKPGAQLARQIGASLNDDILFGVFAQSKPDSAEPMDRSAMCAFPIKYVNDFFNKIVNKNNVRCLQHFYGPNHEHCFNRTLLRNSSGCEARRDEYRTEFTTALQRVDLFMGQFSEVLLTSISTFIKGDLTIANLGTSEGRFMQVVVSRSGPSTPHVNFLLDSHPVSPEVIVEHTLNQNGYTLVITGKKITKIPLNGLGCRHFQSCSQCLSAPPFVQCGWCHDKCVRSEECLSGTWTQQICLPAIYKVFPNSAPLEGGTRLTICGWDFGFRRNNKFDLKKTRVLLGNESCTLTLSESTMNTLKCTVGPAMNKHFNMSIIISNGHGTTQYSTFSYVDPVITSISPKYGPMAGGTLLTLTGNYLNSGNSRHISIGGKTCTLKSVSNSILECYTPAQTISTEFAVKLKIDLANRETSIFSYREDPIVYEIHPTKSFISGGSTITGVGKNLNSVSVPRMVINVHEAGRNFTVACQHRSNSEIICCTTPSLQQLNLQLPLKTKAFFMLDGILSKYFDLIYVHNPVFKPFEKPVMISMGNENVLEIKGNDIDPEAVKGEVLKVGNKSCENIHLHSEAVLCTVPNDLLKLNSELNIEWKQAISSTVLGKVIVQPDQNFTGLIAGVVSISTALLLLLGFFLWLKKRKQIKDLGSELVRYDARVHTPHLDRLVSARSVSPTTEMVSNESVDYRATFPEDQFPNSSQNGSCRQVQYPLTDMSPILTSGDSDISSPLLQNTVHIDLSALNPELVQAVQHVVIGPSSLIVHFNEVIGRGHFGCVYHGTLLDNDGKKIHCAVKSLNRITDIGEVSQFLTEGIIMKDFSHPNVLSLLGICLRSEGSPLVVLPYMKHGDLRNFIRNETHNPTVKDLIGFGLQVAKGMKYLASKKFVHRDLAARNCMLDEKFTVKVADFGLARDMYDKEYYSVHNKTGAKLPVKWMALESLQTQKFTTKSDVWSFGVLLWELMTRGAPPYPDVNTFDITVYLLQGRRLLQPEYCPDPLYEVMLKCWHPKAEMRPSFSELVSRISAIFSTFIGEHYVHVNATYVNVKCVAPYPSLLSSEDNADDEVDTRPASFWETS
DAPK2 (human), sequence (Q9UIK4 whole entry, looked up): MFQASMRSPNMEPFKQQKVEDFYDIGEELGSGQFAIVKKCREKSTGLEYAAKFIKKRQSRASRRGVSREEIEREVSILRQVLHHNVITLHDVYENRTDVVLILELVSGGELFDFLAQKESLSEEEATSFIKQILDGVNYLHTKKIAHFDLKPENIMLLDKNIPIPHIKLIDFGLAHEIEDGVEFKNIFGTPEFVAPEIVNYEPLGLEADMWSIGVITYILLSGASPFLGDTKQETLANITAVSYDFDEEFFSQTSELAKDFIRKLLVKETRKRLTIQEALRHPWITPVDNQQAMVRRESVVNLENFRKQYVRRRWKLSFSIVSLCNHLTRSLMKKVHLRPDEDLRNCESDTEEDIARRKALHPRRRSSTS
MERTK (human), sequence (Q12866 whole entry, looked up): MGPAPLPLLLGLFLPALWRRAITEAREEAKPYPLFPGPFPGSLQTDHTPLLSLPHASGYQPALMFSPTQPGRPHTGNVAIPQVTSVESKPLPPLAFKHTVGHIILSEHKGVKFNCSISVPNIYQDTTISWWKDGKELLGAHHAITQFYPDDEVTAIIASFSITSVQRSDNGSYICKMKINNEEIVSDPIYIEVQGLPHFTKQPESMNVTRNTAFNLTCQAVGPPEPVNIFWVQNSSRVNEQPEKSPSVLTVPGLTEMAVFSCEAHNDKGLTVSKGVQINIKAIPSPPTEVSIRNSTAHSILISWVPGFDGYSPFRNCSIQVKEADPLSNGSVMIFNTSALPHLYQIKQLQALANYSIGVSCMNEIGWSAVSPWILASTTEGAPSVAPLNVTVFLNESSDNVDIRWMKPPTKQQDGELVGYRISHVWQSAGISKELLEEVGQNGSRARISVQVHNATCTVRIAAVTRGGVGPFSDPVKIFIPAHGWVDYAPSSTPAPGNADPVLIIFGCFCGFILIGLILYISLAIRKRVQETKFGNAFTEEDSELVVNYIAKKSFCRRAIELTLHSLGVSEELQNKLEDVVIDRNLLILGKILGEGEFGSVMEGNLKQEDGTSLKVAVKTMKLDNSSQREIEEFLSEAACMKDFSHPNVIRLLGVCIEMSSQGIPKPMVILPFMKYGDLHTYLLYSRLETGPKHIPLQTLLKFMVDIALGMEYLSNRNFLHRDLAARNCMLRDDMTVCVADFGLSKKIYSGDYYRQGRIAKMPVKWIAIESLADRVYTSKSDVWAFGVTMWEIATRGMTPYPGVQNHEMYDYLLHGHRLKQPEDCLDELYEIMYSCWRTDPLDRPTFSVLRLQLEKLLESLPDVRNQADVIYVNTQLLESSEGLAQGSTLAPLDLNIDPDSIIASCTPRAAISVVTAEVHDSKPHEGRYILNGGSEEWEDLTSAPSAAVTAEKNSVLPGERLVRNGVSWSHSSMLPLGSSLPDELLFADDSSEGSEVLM
MAPK1 (human), sequence (P28482 whole entry, looked up): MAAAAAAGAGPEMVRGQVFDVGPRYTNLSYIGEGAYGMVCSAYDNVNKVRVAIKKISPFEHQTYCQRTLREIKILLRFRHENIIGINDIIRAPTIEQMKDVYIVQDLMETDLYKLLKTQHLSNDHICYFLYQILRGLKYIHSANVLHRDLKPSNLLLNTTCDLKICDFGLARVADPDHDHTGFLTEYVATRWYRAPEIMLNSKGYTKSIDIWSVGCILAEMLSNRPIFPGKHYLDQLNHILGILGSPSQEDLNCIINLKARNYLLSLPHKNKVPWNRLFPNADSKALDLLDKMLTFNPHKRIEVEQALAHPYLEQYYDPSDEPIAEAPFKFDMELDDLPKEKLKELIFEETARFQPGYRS

SMILES: Cn1c2ccccc2c2c3c(c4c5ccccc5n(CCC#N)c4c21)CNC3=O
- kinase still bound, per cent of control (CAMKK2 (human)): 1.6%
- kinase still bound, per cent of control (TRPM6 (human)): 81%
- kinase still bound, per cent of control (CSNK1G2 (human)): 94%
- kinase still bound, per cent of control (STK4 (human)): 5.4%
- kinase still bound, per cent of control (RIOK1 (human)): 0.6%
- kinase still bound, per cent of control [1]: 12%
- kinase still bound, per cent of control (CSNK1D (human)): 81%
- kinase still bound, per cent of control (ULK3 (human)): 15%
- kinase still bound, per cent of control (PRKG2 (human)): 11%
- kinase still bound, per cent of control (CAMK2D (human)): 33%
- kinase still bound, per cent of control (GRK1 (human)): 15%
- kinase still bound, per cent of control (TNK2 (human)): 18%
- kinase still bound, per cent of control [2]: 75%
- kinase still bound, per cent of control (MYO3A (human)): 35%
- kinase still bound, per cent of control (ADCK4 (human)): 93%
- kinase still bound, per cent of control (TEC (human)): 92%
- kinase still bound, per cent of control (STK38 (human)): 100%
- kinase still bound, per cent of control (FGFR1 (human)): 74%
- kinase still bound, per cent of control (LTK (human)): 4.2%
- kinase still bound, per cent of control (CSNK1G3 (human)): 84%
- kinase still bound, per cent of control (MERTK (human)): 89%
- kinase still bound, per cent of control (PRKD3 (human)): 2.8%
- kinase still bound, per cent of control (MAPK6 (human)): 74%
- kinase still bound, per cent of control (AAK1 (human)): 0.55%
- kinase still bound, per cent of control (MAPK1 (human)): 100%
- kinase still bound, per cent of control (AURKC (human)): 8%
- kinase still bound, per cent of control (DAPK2 (human)): 61%
- kinase still bound, per cent of control (OXSR1 (human)): 100%
- kinase still bound, per cent of control (PIK3CG (human)): 3.1%
- kinase still bound, per cent of control (MARK3 (human)): 16%
- kinase still bound, per cent of control (MET (human)): 88%
- kinase still bound, per cent of control (MKNK1 (human)): 86%
- kinase still bound, per cent of control (DAPK1 (human)): 78%
- kinase still bound, per cent of control (CDK5 (human)): 61%
- kinase still bound, per cent of control (PRKAA2 (human)): 73%
- kinase still bound, per cent of control (PKN2 (human)): 12%
- kinase still bound, per cent of control (PTK2B (human)): 19%
- kinase still bound, per cent of control (TAOK1 (human)): 8%
- kinase still bound, per cent of control (MUSK (human)): 100%
- kinase still bound, per cent of control (MAPK8 (human)): 18%
- kinase still bound, per cent of control (TXK (human)): 11%
- kinase still bound, per cent of control (CHUK (human)): 88%

Source: the kinase profiling compilation of Christmann-Franck et al. (2016)
